Here are results for 11 compounds from patent US10975049B2, “Nicotinyl alcohol ether derivative, preparation method therefor, and pharmaceutical composition and uses thereof” (Institute of Materia Medica, Chinese Academy of Medical …, priority 2016, dated 2021).

Where a name gives a salt, the structure may show the parent alone.

Data set [1] relates to high metastatic melanoma B16F10. Nature of the data set: Subcutaneous xenograft model of high metastatic melanoma B16F10. It is filed as in vivo, C57BL/6 or Bablc mice. Particulars: for T/C % (relative tumor proliferation rate) / TGI % (tumor growth inhibition rate): tumor weight. On the procedure:
(§1) The method in subcutaneous xenograft tumor was as follows. The cultured specific tumor cells were digested and collected by centrifugation, and washed with sterile physiological saline for two times and then counted. The cell concentration was adjusted to 5×10^6/ml by physiological saline, and 0.2 ml of cell suspension was inoculated to the right armpit of C57BL/6 or Bablc mice. After inoculation, the animals were randomly divided into two groups in next day. Each group had 6-7 mice. After weighing, the animals were dosed once each day to monitor tumor size. When the tumor size reached to a certain size, the mice was weighed and blood was collected from mice orbit and then the mice were killed by removing the neck. The tumor tissue, thymus tissue and spleen tissue were collected and weighed respectively. Finally, the tumor growth inhibition rate was calculated, and the tumor growth inhibition rate was used to evaluate the level of anti-tumor effect.
(§2) In the study of the mechanism of the above models, the method of flow cytometry was adopted in measuring the total cell proportion of T cells of various types. The specific steps were as follows. The samples were treated at first. For blood tissue, the orbital blood was taken. The red cell lysate was used to remove the red blood cells, and then the PBS buffer was used for wash. After being washed, the cells were collected. For the tumor and spleen, the tissues were grinded with a homogenizer, and then diluted with PBS buffer, then filtered by 300 meshes of screen. After the number of cells was counted for each sample, 1×10^6 cells were added into EP tube and stained for flow antibody. After incubation for 1 h on ice, each sample was washed 2 times with PBS buffer. The cell population was analyzed by VERSE flow instrument of BD Company. The total number of cells in tumor tissue was 1×10^5 and the total number of cells in blood and spleen tissues was 1×10^4. The ratio of T cells to total number of cells was analyzed after flow cytometry.

Data set [2] has the same test system. Nature of the data set: Lung metastasis model of high metastatic melanoma B16F10. It is filed as in vivo, C57BL/6 mice. To be noted: for Tumor number X ± SD: lung; for T/C % (relative tumor proliferation rate) / TGI % (tumor growth inhibition rate): tumor number. On the procedure: The method in B16F10 lung metastasis model was as follows. The cultured B16F10 tumor cells were digested and centrifuged and washed for two times with sterile physiological saline and then counted. And the cell concentration was adjusted to 2.5×10^6/ml by physiological saline. 0.2 ml of cells were injected into the C57BL/6 mice through the tail vein, and the tumor cells will gather in the lung of the mice. After inoculation, the animals were randomly divided into two groups in next day. Each group had 6-7 mice. After weighing, the animals were dosed once each day. After 3 weeks, the mice were weighed and killed, the lung tissue was collected and weighed, and the number of lung tumors was counted after being fixed by the Bouin's Fluid. Finally, the tumor growth inhibition rate was calculated, and the tumor growth inhibition rate was used to evaluate the level of anti-tumor effect.
as §2

A further data set has as its system mouse breast cancer EMT6. The data set is described as follows: Subcutaneous xenograft model of mouse breast cancer EMT6. It is filed as in vivo, C57BL/6 or Bablc mice. As to the method: as §1
The subject of another data set is mouse colon cancer MC38. The data set is described as follows: Subcutaneous xenograft model of mouse colon cancer MC38. Format: in vivo, C57BL/6 or Bablc mice. To be noted: 60 mg/kg. As to the method: as §1
Data set [3] deals with interaction between PD-1 and PD-L1 (Homo sapiens (Human), UniProt Q9NZQ7). Nature of the data set: Cisbio PD-1/PD-L1 binding assay kit (HTRF). To be noted: molecular level, read-out: IC50 (M), inhibitory activity on the interaction between PD-1 and PD-L1. From the text:
1. In vitro activity evaluation: Cisbio PD-1/PD-L1 binding assay kit was applied for the detection method of in vitro enzymology level.
Screening Principles and Methods of PD-1/PD-L1 Small Molecule Inhibitors
1) Principle: PD-1 protein is with HIS tag, and PD-1 ligand PD-L1 is with hFc tag. Eu labeled anti-hFc antibody and XL665 labeled anti-HIS antibody are combined with the above two label proteins respectively. After laser excitation, energy can be transferred from donor Eu to receptor XL665, allowing XL665 to glow.
2) Experimental method: The specific method can be referred to Cisbio's PD-1/PD-L1 Kit (item 64CUS000C-2). Reagents should be dispensed in the following order. For 384-well white ELISA plate, 2 μl of diluent or target compound diluted with diluent was added to each well, and then 4 μl of PD-1 protein and 4 μl of PD-L1 protein were added per well, incubated for 15 min at room temperature; and 10 μl of a mixture of anti-Tag1-Eu3^+ and anti-Tag2-XL665 was added per well and incubated for 1 h to 4 h at room temperature and the fluorescence signals at 665 nm and 620 nm were measured with an Envison instrument. HTRF rate=(665 nm/620 nm)*10^4. 8-10 concentrations were detected for each compound and IC50 was calculated by Graphpad software.

[4] abbreviates: spleen, CTX group, dose not given.

Sequence of interaction between PD-1 and PD-L1 (Q9NZQ7 19-238): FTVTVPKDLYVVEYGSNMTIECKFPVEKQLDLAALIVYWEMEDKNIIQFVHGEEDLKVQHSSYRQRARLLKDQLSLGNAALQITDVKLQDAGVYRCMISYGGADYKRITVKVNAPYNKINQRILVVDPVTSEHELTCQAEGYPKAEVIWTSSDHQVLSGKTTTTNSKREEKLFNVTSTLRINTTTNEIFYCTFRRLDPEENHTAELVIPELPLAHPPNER

On to `O=P1(N(CCCl)CCCl)NCCCO1` (stereo not shown) [Cyclophosphamide (CTX), Cyclophosphamide, reference compound], for which, in data set [1] (80 mg/kg), the “Tumorweight(g) X ± SD” value turned out to be 1.55 ± 0.59 g, the “Body weight (g) Mean ± SD Begin” value is 20.3 ± 0.8 g, the “Body weight (g) Mean ± SD End” value is given as 23.3 ± 1.4 g and the “T/C % (relative tumor proliferation rate)” value stood at 60.00%. Further, the “TGI % (tumor growth inhibition rate)” value in data set [1] (80 mg/kg) came out at 40.00%. In data set [1] (setting [4]), the “CD3+ (%) T lymphocytes in spleen” value is reported as 78.6 ± 2.5%, the “CD4+ (%) T lymphocytes in spleen” value worked out at 24.6 ± 2.6% and the “CD8+ (%) T lymphocytes in spleen” value came to 15.2 ± 3.1%. In addition, in data set [1] (CTX group, dose not given), the “CD3+ (%) tumor-infiltrating T lymphocytes” value is reported as 3.6 ± 1.5%, the “CD4+ (%) tumor-infiltrating T lymphocytes” value is 1.7 ± 0.4% and the “CD8+ (%) tumor-infiltrating T lymphocytes” value turned out to be 1.4 ± 0.3%. Moreover, in data set [2] (80 mg/kg), the “Body weight (g) Mean ± SD Begin” value is 20.1 ± 0.8 g, the “Body weight (g) Mean ± SD End” value was 21.4 ± 0.5 g, the “Tumor number X ± SD” value is recorded as 18 ± 14 and the “T/C % (relative tumor proliferation rate)” value came to 85.7%. Moreover, the “TGI % (tumor growth inhibition rate)” value in data set [2] (80 mg/kg) was 14.3%. In addition, in data set [2] (CTX group, dose not given), the “CD3+ percentage of T lymphocyte in mouse blood” value (“CD3+ percentage of T lymphocyte” for short) worked out at 22.4 ± 5.5%, the “CD4+ percentage of T lymphocyte in mouse blood” value (from here on “CD4+ percentage of T lymphocyte”) is listed as 13.0 ± 2.4% and the “CD8+ percentage of T lymphocyte in mouse blood” value (from here on “CD8+ percentage of T lymphocyte”) amounted to 7.5 ± 2.4%. Moreover, in the data set on mouse breast cancer EMT6 (60 mg/kg), the “T/C % (relative tumor proliferation rate)” value amounted to 14.1%, the “TGI % (tumor growth inhibition rate)” value stood at 85.9% and the “Tumorweight(g) X ± SD” value turned out to be 0.25 ± 0.17 g. Moreover, the “Body weight (g) Mean ± SD Begin” value in the data set on mouse breast cancer EMT6 (60 mg/kg, begin) was 18.4 ± 0.3 g. Also, the “Body weight (g) Mean ± SD End” value in the data set with mouse breast cancer EMT6 (60 mg/kg, end) is listed as 19.4 ± 0.7 g. Besides, in the data set on mouse breast cancer EMT6 (Cyclophosphamide alone vs combination, dose not restated), the “tumor growth inhibition rate” value came to 85%. Moreover, in the data set on mouse colon cancer MC38, the “T/C % (relative tumor proliferation rate)” value is listed as 5.4%, the “TGI % (tumor growth inhibition rate)” value worked out at 94.6% and the “Tumor weight(g) Mean ± SD” value came out at 0.17 ± 0.05 g. In the data set on mouse colon cancer MC38 (begin), the “Body weight (g) Mean ± SD Begin” value amounted to 17.9 ± 0.6 g. The “Body weight (g) Mean ± SD End” value in the data set on mouse colon cancer MC38 (end) is given as 19.1 ± 0.8 g.
As for `CCOC(=O)C(CO)NCc1cc(Cl)c(OCc2cccc(-c3ccccc3)c2Br)cc1OCc1cccnc1` (stereo not shown) [Example 1, Ethyl N-(4-(2-bromo-3-phenylbenzyloxy)-5-chloro-2-(pyridin-3-yl-methyleneoxy)benzyl) serinate dihydrochloride], in data set [3], the IC50 came to 1.48e-07 M.
For the compound `CCOC(=O)[C@H](CO)NCc1cc(Cl)c(OCc2cccc(-c3ccccc3)c2Br)cc1OCc1cccnc1.Cl.Cl` [Example 5, (S)-Ethyl N-(4-(2-bromo-3-phenylbenzyloxy)-5-chloro-2-(pyridin-3-yl-methyleneoxy)benzyl) serinate dihydrochloride], in data set [1] (15 mg/kg), the “Tumorweight(g) X ± SD” value is on record as 2.69 ± 1.99 g, the “Body weight (g) Mean ± SD Begin” value is on record as 20.4 ± 1.0 g, the “Body weight (g) Mean ± SD End” value was 24.2 ± 2.2 g and the “T/C % (relative tumor proliferation rate)” value came out at 104.26%. Also, the “TGI % (tumor growth inhibition rate)” value in data set [1] (15 mg/kg) is given as −4.26%. Also, in data set [1] (45 mg/kg), the “Tumorweight(g) X ± SD” value was determined as 1.41 ± 0.60 g, the “Body weight (g) Mean ± SD Begin” value came out at 20.3 ± 1.0 g, the “Body weight (g) Mean ± SD End” value is 22.6 ± 1.4 g and the “T/C % (relative tumor proliferation rate)” value is listed as 54.73%. Moreover, the “TGI % (tumor growth inhibition rate)” value in data set [1] (45 mg/kg) was found to be 45.27%. For the same compound, the “proportion of tumor-infiltrating lymphocytes” value in data set [1] (result in words) is “increase”. In addition, in data set [1] (45 mg), the “CD3+ (%) tumor-infiltrating T lymphocytes” value stood at 10.1 ± 4.5%, the “CD4+ (%) tumor-infiltrating T lymphocytes” value came to 9.0 ± 4.7% and the “CD8+ (%) tumor-infiltrating T lymphocytes” value stood at 5.2 ± 2.8%. For the same compound, in data set [2] (15 mg/kg), the “Body weight (g) Mean ± SD Begin” value worked out at 20.6 ± 0.7 g, the “Body weight (g) Mean ± SD End” value is recorded as 20.2 ± 1.5 g, the “Tumor number X ± SD” value was 18 ± 18 and the “T/C % (relative tumor proliferation rate)” value was determined as 85.7%. The “TGI % (tumor growth inhibition rate)” value in data set [2] (15 mg/kg) stood at 14.3%. In data set [2] (45 mg/kg), the “Body weight (g) Mean ± SD Begin” value amounted to 20.5 ± 0.6 g, the “Body weight (g) Mean ± SD End” value came out at 21.2 ± 0.7 g, the “Tumor number X ± SD” value is reported as 16 ± 7 and the “T/C % (relative tumor proliferation rate)” value is on record as 76.2%. In addition, the “TGI % (tumor growth inhibition rate)” value in data set [2] (45 mg/kg) amounted to 23.8%. Moreover, in data set [2] (15 mg), the “CD3+ percentage of T lymphocyte” value stood at 22.7 ± 4.8%, the “CD4+ percentage of T lymphocyte” value is reported as 14.4 ± 3.3% and the “CD8+ percentage of T lymphocyte” value is 7.4 ± 1.9%. In addition, in data set [2] (45 mg), the “CD3+ percentage of T lymphocyte” value turned out to be 25.8 ± 3.0%, the “CD4+ percentage of T lymphocyte” value is on record as 15.7 ± 2.5% and the “CD8+ percentage of T lymphocyte” value is recorded as 7.6 ± 1.8%. Further, in data set [2] (result in words), the “percentage of lymphocyte in mouse blood” value is on record as “increase”.
With `CC(C)OC(=O)[C@H](CO)NCc1cc(Cl)c(OCc2cccc(-c3ccccc3)c2Br)cc1OCc1cccnc1` [Example 6, (S)-isopropyl N-(4-(2-bromo-3-phenylbenzyloxy)-5-chloro-2-(pyridin-3-yl-methyleneoxy)benzyl) serinate dihydrochloride], in data set [3], the IC50 was 8.23e-08 M.
`O=C(O)[C@@H](CO)NCc1cc(Cl)c(OCc2cccc(-c3ccccc3)c2Br)cc1OCc1cccnc1` [Example 8, (R)—N-(4-(2-bromo-3-phenylbenzyloxy)-5-chloro-2-(pyridin-3-yl-methyleneoxy)benzyl) serine]: the IC50 in data set [3] is 4.29e-08 M.
Turning to `O=C(O)CNCc1cc(Cl)c(OCc2cccc(-c3ccccc3)c2Br)cc1OCc1cccnc1` [Example 12, N-(4-(2-bromo-3-phenylbenzyloxy)-5-chloro-2-(pyridin-3-yl-methyleneoxy)benzyl) glycine], the IC50 in data set [3] was found to be 4.11e-08 M.
On the same count and under the same terms, next, `CC(C)C(NCc1cc(Cl)c(OCc2cccc(-c3ccccc3)c2Br)cc1OCc1cccnc1)C(=O)O` (stereo not shown) [Example 13, N-(4-(2-bromo-3-phenylbenzyloxy)-5-chloro-2-(pyridin-3-yl-methyleneoxy)benzyl) valine]: 2e-07 M.
Same read-out and setting: next, `C/C(=C\C#N)NCc1cc(Cl)c(OCc2cccc(-c3ccccc3)c2Br)cc1OCc1cccnc1` [Example 14, (E)-3-(4-(2-bromo-3-phenylbenzyloxy)-5-chloro-2-(pyridin-3-yl-methyleneoxy)benzylamino) but-2-enenitrile]: 2.69e-05 M; `CS(=O)(=O)NCCNCc1cc(Cl)c(OCc2cccc(-c3ccccc3)c2Br)cc1OCc1cccnc1` [Example 16, N-(2-methanesulfonaminoethyl)-4-(2-bromo-3-phenylbenzyloxy)-5-chloro-2-(pyridin-3-yl-methyleneoxy)benzylamine]: 1.99e-07 M.
Same read-out and setting: the same measure for `CC(=O)NCCNCc1cc(Cl)c(OCc2cccc(-c3ccccc3)c2Br)cc1OCc1cccnc1` [Example 17, N-(2-acetylaminoethyl)-4-(2-bromo-3-phenylbenzyloxy)-5-chloro-2-(pyridin-3-yl-methyleneoxy) benzylamine]: 5.51e-07 M; for `CC(C)C[C@H](NCc1cc(Cl)c(OCc2cccc(-c3ccccc3)c2Br)cc1OCc1cccnc1)C(=O)O` [Example 20, N-(4-(2-bromo-3-phenylbenzyloxy)-5-chloro-2-(pyridin-3-yl-methyleneoxy)benzyl) leucine]: 6.1e-08 M.
